Assay results reported in patent US20250032567A1, “PLANT-BASED SKIN PREPARATIONS AND USE THEREOF” (priority 2022, published 2025).

system: cannabis calli; test: Elicitation of callus cultures on solid medium, cannabinoid content by HPLC; format: cell-based, Cannabis sativa; settings: elicitors compared for inducing secondary metabolites

| Compound | cannabinoid production (elicitor effect) |
| --- | --- |
| NCCCC(=O)O [GABA] | positive results |
| N[C@@H](Cc1ccccc1)C(=O)O [phenylalanine] | positive results |
| N[C@@H](Cc1ccc(O)cc1)C(=O)O [tyrosine] | positive results |
| CCCCCC(=O)O [hexanoic acid] | positive results |
| CC/C=C\CC1C(=O)CCC1CC(=O)OC (stereo not shown) [methyl jasmonate] | positive results |
| O=C(O)c1ccccc1O [salicylic acid] | positive results |
| O=P(O)(O)CCCl [ethephon] | positive results |
